PubChem BioAssay AID272 (DTP/NCI, 2004)
“And” between values parts separate entries of the source, which are not always exact repeats. Identical values can stand only once. Records with an inconclusive call do not appear.

System: Lewis lung carcinoma i.m., BDF1 mice, T/C %
Assay: NCI In Vivo Anticancer Drug Screen. Data for tumor model Lewis Lung Carcinoma (intramuscular) in B6D2F1 (BDF1) mice
Outline: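 Compound given to mice with transplantable tumours; survival or tumour size compared against the vehicle control group, reported as T divided by C.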

[1] = endpoint: mean tumor weight (est.), dose: 50.0 mg/kg/injection, schedule: Q01DX011 (ip), vehicle: saline with Tween-80, higher = larger tumour
[2] = endpoint: mean tumor weight (est.), dose: 100.0 mg/kg/injection, schedule: Q01DX011 (ip), vehicle: saline with Tween-80, higher = larger tumour
[3] = endpoint: mean tumor weight (est.), dose: 200.0 mg/kg/injection, schedule: Q01DX011 (ip), vehicle: saline with Tween-80, higher = larger tumour
[4] = endpoint: median survival time, dose: 50.0 mg/kg/injection, schedule: Q01DX011 (ip), vehicle: saline with Tween-80, higher = longer survival
[5] = endpoint: median survival time, dose: 100.0 mg/kg/injection, schedule: Q01DX011 (ip), vehicle: saline with Tween-80, higher = longer survival

SMILES: COc1c(C)c2c(c(O)c1C/C=C(\C)CCC(=O)O)C(=O)OC2
- T/C (endpoint: mean tumor weight (est.), dose: 25.0 mg/kg/injection, schedule: Q01DX011 (ip), vehicle: saline with Tween-80, higher = larger tumour): 98 % of control
- T/C [1]: 71 % of control
- T/C [2]: 57 % of control
- T/C [3]: 27 % of control
- T/C (endpoint: median survival time, dose: 25.0 mg/kg/injection, schedule: Q01DX011 (ip), vehicle: saline with Tween-80, higher = longer survival): 97 % of control
- T/C [4]: 106 % of control
- T/C [5]: 100 % of control

SMILES: CCOC(=O)N1c2ccccc2C=CC1C#N (stereo not drawn)
- T/C [1]: 67 % of control
- T/C [2]: 91 % of control
- T/C [3]: 72 % of control
- T/C (endpoint: mean tumor weight (est.), dose: 400.0 mg/kg/injection, schedule: Q01DX011 (ip), vehicle: saline with Tween-80, higher = larger tumour): 59 % of control
- T/C [4]: 94 % of control
- T/C [5]: 90 % of control
- T/C (endpoint: median survival time, dose: 200.0 mg/kg/injection, schedule: Q01DX011 (ip), vehicle: saline with Tween-80, higher = longer survival): 96 % of control
- T/C (endpoint: median survival time, dose: 400.0 mg/kg/injection, schedule: Q01DX011 (ip), vehicle: saline with Tween-80, higher = longer survival): 88 % of control

SMILES: Cc1n(Cc2ccccc2)c2c([n+]1C)C(=O)c1ccccc1C2=O
- T/C (endpoint: mean tumor weight (est.), dose: 0.13 mg/kg/injection, schedule: Q01DX011 (ip), vehicle: saline with Tween-80, higher = larger tumour): 48 % of control
- T/C (endpoint: mean tumor weight (est.), dose: 0.25 mg/kg/injection, schedule: Q01DX011 (ip), vehicle: saline with Tween-80, higher = larger tumour): 50 % of control
- T/C (endpoint: mean tumor weight (est.), dose: 0.5 mg/kg/injection, schedule: Q01DX011 (ip), vehicle: saline with Tween-80, higher = larger tumour): 31 % of control
- T/C (endpoint: mean tumor weight (est.), dose: 1.0 mg/kg/injection, schedule: Q01DX011 (ip), vehicle: saline with Tween-80, higher = larger tumour): 36 % of control
- T/C (endpoint: mean tumor weight (est.), dose: 2.0 mg/kg/injection, schedule: Q01DX011 (ip), vehicle: saline with Tween-80, higher = larger tumour): 43 % of control
- T/C (endpoint: median survival time, dose: 0.13 mg/kg/injection, schedule: Q01DX011 (ip), vehicle: saline with Tween-80, higher = longer survival): 110 % of control
- T/C (endpoint: median survival time, dose: 0.25 mg/kg/injection, schedule: Q01DX011 (ip), vehicle: saline with Tween-80, higher = longer survival): 100 % of control
- T/C (endpoint: median survival time, dose: 0.5 mg/kg/injection, schedule: Q01DX011 (ip), vehicle: saline with Tween-80, higher = longer survival): 106 % of control
- T/C (endpoint: median survival time, dose: 1.0 mg/kg/injection, schedule: Q01DX011 (ip), vehicle: saline with Tween-80, higher = longer survival): 89 % of control
- T/C (endpoint: median survival time, dose: 2.0 mg/kg/injection, schedule: Q01DX011 (ip), vehicle: saline with Tween-80, higher = longer survival): 89 % of control

SMILES: CC(=O)O[C@]1(C(C)=O)CC[C@H]2[C@@H]3C[C@H](C)C4=CC(=O)CC[C@]4(C)[C@H]3CC[C@@]21C
- T/C (endpoint: median survival time, dose: 50.0 mg/kg/injection, schedule: Q01DX009 (ip), vehicle: Klucel (hydroxypropylcellulose) (HPC), higher = longer survival): 90 % of control
- T/C (endpoint: median survival time, dose: 50.0 mg/kg/injection, schedule: Q01DX011 (ip), vehicle: Klucel (hydroxypropylcellulose) (HPC), higher = longer survival): 104 % of control and 109 % of control
- T/C (endpoint: median survival time, dose: 100.0 mg/kg/injection, schedule: Q01DX009 (ip), vehicle: Klucel (hydroxypropylcellulose) (HPC), higher = longer survival): 107 % of control
- T/C (endpoint: median survival time, dose: 100.0 mg/kg/injection, schedule: Q01DX011 (ip), vehicle: Klucel (hydroxypropylcellulose) (HPC), higher = longer survival): 104 % of control
- T/C (endpoint: median survival time, dose: 200.0 mg/kg/injection, schedule: Q01DX009 (ip), vehicle: Klucel (hydroxypropylcellulose) (HPC), higher = longer survival): 110 % of control
- T/C (endpoint: median survival time, dose: 200.0 mg/kg/injection, schedule: Q01DX011 (ip), vehicle: Klucel (hydroxypropylcellulose) (HPC), higher = longer survival): 107 % of control and 119 % of control
- T/C (endpoint: median survival time, dose: 400.0 mg/kg/injection, schedule: Q01DX009 (ip), vehicle: Klucel (hydroxypropylcellulose) (HPC), higher = longer survival): 114 % of control
- T/C (endpoint: median survival time, dose: 400.0 mg/kg/injection, schedule: Q01DX011 (ip), vehicle: Klucel (hydroxypropylcellulose) (HPC), higher = longer survival): 109 % of control and 123 % of control
- T/C (endpoint: median survival time, dose: 800.0 mg/kg/injection, schedule: Q01DX009 (ip), vehicle: Klucel (hydroxypropylcellulose) (HPC), higher = longer survival): 90 % of control

SMILES: CN(N=O)C(=O)N[C@@H](C=O)[C@@H](O)[C@H](O)[C@H](O)CO
- T/C (endpoint: mean tumor weight, dose: 12.5 mg/kg/injection, schedule: Q01DX011 (ip), vehicle: saline, higher = larger tumour): 66 % of control
- T/C (endpoint: mean tumor weight, dose: 25.0 mg/kg/injection, schedule: Q01DX011 (ip), vehicle: saline, higher = larger tumour): 95 % of control
- T/C (endpoint: mean tumor weight, dose: 100.0 mg/kg/injection, schedule: Q01DX011 (ip), vehicle: saline, higher = larger tumour): 61 % of control
- T/C (endpoint: mean tumor weight, dose: 200.0 mg/kg/injection, schedule: Q01DX011 (ip), vehicle: saline, higher = larger tumour): 74 % of control
- T/C (endpoint: median survival time, dose: 12.5 mg/kg/injection, schedule: Q01DX011 (ip), vehicle: saline, higher = longer survival): 109 % of control
- T/C (endpoint: median survival time, dose: 25.0 mg/kg/injection, schedule: Q01DX011 (ip), vehicle: saline, higher = longer survival): 95 % of control
- T/C (endpoint: median survival time, dose: 50.0 mg/kg/injection, schedule: Q01DX011 (ip), vehicle: saline, higher = longer survival): 90 % of control and 100 % of control
- T/C (endpoint: median survival time, dose: 100.0 mg/kg/injection, schedule: Q01DX011 (ip), vehicle: saline, higher = longer survival): 92 % of control
- T/C (endpoint: median survival time, dose: 200.0 mg/kg/injection, schedule: Q01DX011 (ip), vehicle: saline, higher = longer survival): 121 % of control
